Data from patent US11553712B2 (priority 2010, dated 2023).
Where two headings read alike, the source gives them in different places. Marks after values point to notes of the source that are not given here.

Assays:
PRV = details: eluate with 45% PG
TGEV = details: 45% (v/v) PG eluate, 20°C
BVDV = details: 45% (v/v) PG eluate, 20°C
[1] = T = 6 h (+SD) (Standard titration)
[2] = TGEV Run 1, T = 0 min Load Sample, Standard titration
[3] = TGEV Run 1, T = 5 min, Standard titration
[4] = TGEV Run 1, T = 15 min, Standard titration
[5] = TGEV Run 1, T = 60 min, Standard titration
[6] = TGEV Run 1, T = 180 min, Standard titration
[7] = TGEV Run 1, T = 360 min, Standard titration
[8] = TGEV Run 2, T = 0 min Load Sample, Standard titration
[9] = TGEV Run 2, T = 5 min, Standard titration
[10] = TGEV Run 2, T = 15 min, Standard titration
[11] = TGEV Run 2, T = 60 min, Standard titration
[12] = TGEV Run 2, T = 180 min, 1LVP (96 wells)
[13] = TGEV Run 2, T = 360 min, 1 LVP (96 wells)
[14] = BVDV Run 1, T = 0 min Load Sample, Standard titration
[15] = BVDV Run 1, T = 5 min, Standard titration
[16] = BVDV Run 1, T = 15 min, Standard titration
[17] = BVDV Run 1, T = 60 min, Standard titration
[18] = BVDV Run 1, T = 180 min, Standard titration
[19] = BVDV Run 1, T = 360 min, Standard titration
[20] = BVDV Run 2, T = 0 min Load Sample, Standard titration
[21] = BVDV Run 2, T = 5 min, Standard titration
[22] = BVDV Run 2, T = 15 min, Standard titration
[23] = BVDV Run 2, T = 60 min, Standard titration
[24] = BVDV Run 2, T = 180 min, Standard titration

propane-1,2-diol [PG]
Titer (PRV; Control T = 0 h (w/o SD)): 2.17 ± 0.30 TCID50/ml
Viral Load (PRV; Control T = 0 h (w/o SD)): 4.47 ± 0.30 log10
Titer (PRV; Control T = 6 h (w/o SD)): ≤0.78* TCID50/ml
Viral Load (PRV; Control T = 6 h (w/o SD)): ≤3.08 log10
Titer (PRV; T = 0 h (+SD)): ≤1.48* TCID50/ml
Viral Load (PRV; T = 0 h (+SD)): ≤3.78 log10
Titer (PRV; T = 1 h (+SD)): ≤1.48* TCID50/ml
Viral Load (PRV; T = 1 h (+SD)): ≤3.78 log10
Titer (PRV; T = 3 h (+SD)): ≤1.48* TCID50/ml
Viral Load (PRV; T = 3 h (+SD)): ≤3.78 log10
Titer (PRV; [1]): ≤1.48* TCID50/ml
Viral Load (PRV; [1]): ≤3.78 log10
Clearance Factor (TGEV; [2]): 0.07 log
Log10TICD50 (total viral load) (TGEV; [2]): 7.38 Log10TICD50
Titre (TGEV; [2]): 5.12 log10TCID50/ml
Clearance Factor (TGEV; [3]): 1.24 log
Log10TICD50 (total viral load) (TGEV; [3]): 6.21 Log10TICD50
Titre (TGEV; [3]): 3.95 log10TCID50/ml
Reduction Factor (TGEV; TGEV Run 1, T = 5 min vs T0, Standard titration): 1.17 log
Clearance Factor (TGEV; [4]): 2.41 log
Log10TICD50 (total viral load) (TGEV; [4]): 5.04 Log10TICD50
Titre (TGEV; [4]): 2.78 log10TCID50/ml
Reduction Factor (TGEV; TGEV Run 1, T = 15 min vs T0, Standard titration): 2.34 log
Clearance Factor (TGEV; [5]): 3.87 log
Log10TICD50 (total viral load) (TGEV; [5]): 3.58 Log10TICD50
Titre (TGEV; [5]): 1.32 log10TCID50/ml
Reduction Factor (TGEV; TGEV Run 1, T = 60 min vs T0, Standard titration): 3.8 log
Clearance Factor (TGEV; [6]): 4.39 log
Log10TICD50 (total viral load) (TGEV; [6]): 3.06 Log10TICD50
Titre (TGEV; [6]): 0.8 log10TCID50/ml
Reduction Factor (TGEV; TGEV Run 1, T = 180 min vs T0, Standard titration): 4.32 log
Clearance Factor (TGEV; [7]): >4.39 log
Log10TICD50 (total viral load) (TGEV; [7]): <3.06 Log10TICD50
Titre (TGEV; [7]): <0.8 log10TCID50/ml
Reduction Factor (TGEV; TGEV Run 1, T = 360 min vs T0, Standard titration): >4.32 log
Clearance Factor (TGEV; [8]): 0.08 log
Log10TICD50 (total viral load) (TGEV; [8]): 7.54 Log10TICD50
Titre (TGEV; [8]): 5.28 log10TCID50/ml
Clearance Factor (TGEV; [9]): 1.08 log
Log10TICD50 (total viral load) (TGEV; [9]): 6.54 Log10TICD50
Titre (TGEV; [9]): 4.28 log10TCID50/ml
Reduction Factor (TGEV; TGEV Run 2, T = 5 min vs T0, Standard titration): 1 log
Clearance Factor (TGEV; [10]): 2.16 log
Log10TICD50 (total viral load) (TGEV; [10]): 5.46 Log10TICD50
Titre (TGEV; [10]): 3.2 log10TCID50/ml
Reduction Factor (TGEV; TGEV Run 2, T = 15 min vs T0, Standard titration): 2.08 log
Clearance Factor (TGEV; [11]): 4.56 log
Log10TICD50 (total viral load) (TGEV; [11]): 3.06 Log10TICD50
Titre (TGEV; [11]): 0.8 log10TCID50/ml
Reduction Factor (TGEV; TGEV Run 2, T = 60 min vs T0, Standard titration): 4.48 log
Clearance Factor (TGEV; [12]): 5.48 log
Log10TICD50 (total viral load) (TGEV; [12]): 2.14 Log10TICD50
Titre (TGEV; [12]): −0.12 log10TCID50/ml
Reduction Factor (TGEV; TGEV Run 2, T = 180 min vs T0, 1LVP (96 wells)): 5.4 log
Clearance Factor (TGEV; [13]): >5.48 log
Log10TICD50 (total viral load) (TGEV; [13]): <2.14 Log10TICD50
Titre (TGEV; [13]): <−0.12 log10TCID50/ml
Reduction Factor (TGEV; TGEV Run 2, T = 360 min vs T0, 1 LVP (96 wells)): >5.40 log
Clearance Factor (BVDV; [14]): 0.43 log
Log10TICD50 (total viral load) (BVDV; [14]): 5.85 Log10TICD50
Titre (BVDV; [14]): 3.12 log10TCID50/ml
Clearance Factor (BVDV; [15]): 1.65 log
Log10TICD50 (total viral load) (BVDV; [15]): 4.63 Log10TICD50
Titre (BVDV; [15]): 1.9 log10TCID50/ml
Reduction Factor (BVDV; BVDV Run 1, T = 5 min vs T0, Standard titration): 1.22 log
Clearance Factor (BVDV; [16]): 1.3 log
Log10TICD50 (total viral load) (BVDV; [16]): 4.98 Log10TICD50
Titre (BVDV; [16]): 2.25 log10TCID50/ml
Reduction Factor (BVDV; BVDV Run 1, T = 15 min vs T0, Standard titration): 0.87 log
Clearance Factor (BVDV; [17]): 1.3 log
Log10TICD50 (total viral load) (BVDV; [17]): 4.98 Log10TICD50
Titre (BVDV; [17]): 2.25 log10TCID50/ml
Reduction Factor (BVDV; BVDV Run 1, T = 60 min vs T0, Standard titration): 0.87 log
Clearance Factor (BVDV; [18]): 1.3 log
Log10TICD50 (total viral load) (BVDV; [18]): 4.98 Log10TICD50
Titre (BVDV; [18]): 2.25 log10TCID50/ml
Reduction Factor (BVDV; BVDV Run 1, T = 180 min vs T0, Standard titration): 0.87 log
Clearance Factor (BVDV; [19]): 2.75 log
Log10TICD50 (total viral load) (BVDV; [19]): 3.53 Log10TICD50
Titre (BVDV; [19]): 0.8 log10TCID50/ml
Reduction Factor (BVDV; BVDV Run 1, T = 360 min vs T0, Standard titration): >4.32 log
Clearance Factor (BVDV; [20]): 0.44 log
Log10TICD50 (total viral load) (BVDV; [20]): 5.76 Log10TICD50
Titre (BVDV; [20]): 3.03 log10TCID50/ml
Clearance Factor (BVDV; [21]): 1.88 log
Log10TICD50 (total viral load) (BVDV; [21]): 4.32 Log10TICD50
Titre (BVDV; [21]): 1.59 log10TCID50/ml
Reduction Factor (BVDV; BVDV Run 2, T = 5 min vs T0, Standard titration): 1.44 log
Clearance Factor (BVDV; [22]): 2.15 log
Log10TICD50 (total viral load) (BVDV; [22]): 4.05 Log10TICD50
Titre (BVDV; [22]): 1.32 log10TCID50/ml
Reduction Factor (BVDV; BVDV Run 2, T = 15 min vs T0, Standard titration): 1.71 log
Clearance Factor (BVDV; [23]): 1.88 log
Log10TICD50 (total viral load) (BVDV; [23]): 4.32 Log10TICD50
Titre (BVDV; [23]): 1.59 log10TCID50/ml
Reduction Factor (BVDV; BVDV Run 2, T = 60 min vs T0, Standard titration): 1.44 log
Clearance Factor (BVDV; [24]): >2.67 log
Log10TICD50 (total viral load) (BVDV; [24]): <3.53 Log10TICD50
Titre (BVDV; [24]): <0.8 log10TCID50/ml
Reduction Factor (BVDV; BVDV Run 2, T = 180 min vs T0, Standard titration): >2.23 log
Clearance Factor (BVDV; BVDV Run 2, T = 360 min, 1 LVP): >3.59 log
Log10TICD50 (total viral load) (BVDV; BVDV Run 2, T = 360 min, 1 LVP): <2.61 Log10TICD50
Titre (BVDV; BVDV Run 2, T = 360 min, 1 LVP): <−0.12 log10TCID50/ml
Reduction Factor (BVDV; BVDV Run 2, T = 360 min vs T0, 1 LVP): >3.15 log
